Source: patent publication US20240270759A1, “Preparation of SHP2 phosphatase inhibitors and its applications” (Ya Therapeutics Inc, priority 2021, published 2024)

Molecular target: T1, SHP2 full-length protein (Homo sapiens, UniProt Q06124)
T1 construct: purchased BPS Bioscience #79330
T1 sequence (Q06124 1-593): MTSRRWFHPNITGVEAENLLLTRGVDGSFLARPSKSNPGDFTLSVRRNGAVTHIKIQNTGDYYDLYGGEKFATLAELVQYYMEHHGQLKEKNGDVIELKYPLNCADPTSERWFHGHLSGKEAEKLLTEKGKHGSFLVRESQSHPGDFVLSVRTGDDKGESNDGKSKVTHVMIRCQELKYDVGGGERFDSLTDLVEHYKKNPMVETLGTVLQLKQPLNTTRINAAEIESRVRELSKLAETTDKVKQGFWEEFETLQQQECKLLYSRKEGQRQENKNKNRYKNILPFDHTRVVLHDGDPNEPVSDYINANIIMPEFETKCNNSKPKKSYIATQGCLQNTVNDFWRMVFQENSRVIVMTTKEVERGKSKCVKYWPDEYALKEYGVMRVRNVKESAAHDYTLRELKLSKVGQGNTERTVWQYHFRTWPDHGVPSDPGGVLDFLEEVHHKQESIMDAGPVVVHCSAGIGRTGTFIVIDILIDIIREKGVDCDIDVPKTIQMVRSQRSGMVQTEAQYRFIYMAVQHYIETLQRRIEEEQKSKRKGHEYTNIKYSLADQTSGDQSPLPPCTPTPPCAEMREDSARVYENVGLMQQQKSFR
Assay: SHP2 allosteric inhibition experiment (Homogeneous Full Length SHP-2 Assay Kit)
Assay type: biochemical
Conditions: full-length SHP2 0.06 nM with SHP-2 activating peptide; ten-point, 1 μM to 0.05 nM; read-out: IC50 Values of Compounds Inhibiting SHP2

Row | IC50 [nM] | SMILES
1 | ≤ 10 | C[C@@H]1OCC2(CCN(c3ccc4nc(Sc5cccc(NC(=O)c6c(O)nc7n(c6=O)CCCC7)c5Cl)cnc4n3)CC2)[C@@H]1N [Compound 97, N-(3-((6-((3S,4S)-4-amino-3-methyl-2-oxa-8-azaspiro[4.5]decane-8-yl)pyridinyl[2,3-b]pyrazine-2-yl)mercapto)-2-chlorophenyl)-2-hydroxy-4-oxo-6,7,8,9-tetrahydro-4H-p yridinyl[1,2-a]pyrimidine-3-carboxamide]
2 | ≤ 10 | C[C@@H]1OCC2(CCN(c3cnc4nc(Sc5cccc(NC(=O)c6c(O)nc7n(c6=O)CCCC7)c5Cl)ccc4n3)CC2)[C@@H]1N [Compound 98, N-(3-((2-((3S,4S)-4-amino-3-methyl-2-oxa-8-azaspiro[4.5]decane-8-yl)pyridinyl[2,3-b]pyrazine-6-yl)mercapto)-2-chlorophenyl)-2-hydroxy-4-oxo-6,7,8,9-tetrahydro-4H-p yridinyl[1,2-a]pyrimidine-3-carboxamide]
3 | ≤ 10 | C[C@@H]1OCC2(CCN(c3cnc(Sc4cccc(-c5ccn(C)n5)c4Cl)nc3)CC2)[C@@H]1N [Compound 99, (3S,4S)-8-(2-((2-chloro-3-(1-methyl-1H-pyrazole-3-yl)phenyl)mercapto)pyrimidine-5-yl)-3-methyl-2-oxa-8-azaspiro[4.5]decane-4-amine]
4 | ≤ 10 | CCn1ccc(-c2cccc(Sc3ncc(N4CCC5(CC4)CO[C@@H](C)[C@H]5N)cn3)c2Cl)n1 [Compound 100, (3S,4S)-8-(2-((2-chloro-3-(1-ethyl-1H-pyrazole-3-yl)phenyl)mercapto)pyrimidine-5-yl)-3-methyl-2-oxa-8-azaspiro[4.5]decane-4-amine]
5 | ≤ 10 | CC(C)n1ccc(-c2cccc(Sc3ncc(N4CCC5(CC4)CO[C@@H](C)[C@H]5N)cn3)c2Cl)n1 [Compound 101, (3S,4S)-8-(2-((2-chloro-3-(1-isopropyl-1H-pyrazole-3-yl)phenyl)mercapto)pyrimidine-5-yl)-3-methyl-2-oxa-8-azaspiro[4.5]decane-4-amine]
6 | ≤ 10 | C[C@@H]1OCC2(CCN(c3cnc(Sc4cccc(NC(=O)c5c(O)nc6n(c5=O)CCCC6)c4Cl)nc3)CC2)[C@@H]1N [Compound 102, N-(3-((5-((3S,4S)-4-amino-3-methyl-2-oxa-8-azaspiro[4.5]decane-8-yl)pyrimidine-2-yl)mercapto)-2-chlorobenzene)-2-hydroxyl-4-oxa-6,7,8,9-tetrahydro-4H-pyridinyl[1,2-a]pyrimidine-3-carboxamide]
7 | ≤ 10 | C[C@@H]1OCC2(CCN(c3cnc(Sc4cccc(-c5cncnc5)c4Cl)nc3)CC2)[C@@H]1N [Compound 103, (3S,4S)-8-(2-((2-chloro-3-(pyrimidine-5-yl)phenyl)mercapto)pyrimidine-5-yl)-3-methyl-2-oxa-8-azaspiro[4.5]decane-4-amine]
8 | ≤ 10 | C[C@@H]1OCC2(CCN(c3cnc(Sc4cccc(-c5cnccn5)c4Cl)nc3)CC2)[C@@H]1N [Compound 104, (3S,4S)-8-(2-((2-chloro-3-(pyrazine-2-yl)phenyl)mercapto)pyrimidine-5-yl)-3-methyl-2-oxa-8-azaspiro[4.5]decane-4-amine]
9 | ≤ 10 | C[C@@H]1OCC2(CCN(c3cnc(Sc4cccc(-c5cccnc5)c4Cl)nc3)CC2)[C@@H]1N [Compound 105, (3S,4S)-8-(2-((2-chloro-3-(pyridine-3-yl)phenyl)mercapto)pyrimidine-5-yl)-3-methyl-2-oxa-8-azaspiro[4.5]decane-4-amine]
10 | ≤ 10 | C[C@@H]1OCC2(CCN(c3cnc(Sc4cccc(-c5ccncn5)c4Cl)nc3)CC2)[C@@H]1N [Compound 106, (3S,4S)-8-(2-((2-chloro-3-(pyrimidine-4-yl)phenyl)mercapto)pyrimidine-5-yl)-3-methyl-2-oxa-8-azaspiro[4.5]decane-4-amine]
11 | 10 to 100 | C[C@@H]1OCC2(CCN(c3cnc(Sc4cccc(Nc5cccnc5)c4Cl)nc3)CC2)[C@@H]1N [Compound 107, (3S,4S)-8-(2-((2-chloro-3-(pyridine-3-amino)phenyl)mercapto)pyrimidine-5-yl)-3-me thyl-2-oxa-8-azaspiro[4.5]decane-4-amine]
12 | 10 to 100 | C[C@@H]1OCC2(CCN(c3cnc(Sc4cccc(Nc5ncccn5)c4Cl)nc3)CC2)[C@@H]1N [Compound 108, (3S,4S)-8-(2-((2-chloro-3-(pyrimidine-2-amino)phenyl)mercapto)pyrimidine-5-yl)-3-methyl-2-oxa-8-azaspiro[4.5]decane-4-amine]
13 | 10 to 100 | C[C@@H]1OCC2(CCN(c3cnc(Sc4cccc(Nc5cnccn5)c4Cl)nc3)CC2)[C@@H]1N [Compound 109, (3S,4S)-8-(2-((2-chloro-3-(pyrazine-2-amino)phenyl)mercapto)pyrimidine-5-yl)-3-me thyl-2-oxa-8-azaspiro[4.5]decane-4-amine]
14 | 10 to 100 | C[C@@H]1OCC2(CCN(c3cnc(Sc4cccc(Nc5ccncn5)c4Cl)nc3)CC2)[C@@H]1N [Compound 110, (3S,4S)-8-(2-((2-chloro-3-(pyrimidine-4-amino)phenyl)mercapto)pyrimidine-5-yl)-3-methyl-2-oxa-8-azaspiro[4.5]decane-4-amine]
15 | 10 to 100 | C[C@@H]1OCC2(CCN(c3ncc(Sc4cccc(-c5ccn(C)n5)c4Cl)cn3)CC2)[C@@H]1N [Compound 111, (3S,4S)-8-(5-((2-chloro-3-(1-methyl-1H-pyrazole-3-yl)phenyl)mercapto)pyrimidine-2-yl)-3-methyl-2-oxa-8-azaspiro[4.5]decane-4-amine]
16 | 10 to 100 | CCn1ccc(-c2cccc(Sc3cnc(N4CCC5(CC4)CO[C@@H](C)[C@H]5N)nc3)c2Cl)n1 [Compound 112, (3S,4S)-8-(5-((2-chloro-3-(1-ethyl-1H-pyrazole-3-yl)phenyl)mercapto)pyrimidine-2-yl)-3-methyl-2-oxa-8-azaspiro[4.5]decane-4-amine]
17 | 10 to 100 | CC(C)n1ccc(-c2cccc(Sc3cnc(N4CCC5(CC4)CO[C@@H](C)[C@H]5N)nc3)c2Cl)n1 [Compound 113, (3S,4S)-8-(5-((2-chloro-3-(1-isopropyl-1H-pyrazole-3-yl)phenyl)mercapto)pyrimidine-2-yl)-3-methyl-2-oxa-8-azaspiro[4.5]decane-4-amine]
18 | 10 to 100 | C[C@@H]1OCC2(CCN(c3ncc(Sc4cccc(NC(=O)c5c(O)nc6n(c5=O)CCCC6)c4Cl)cn3)CC2)[C@@H]1N [Compound 114, N-(3-((2-((3S,4S)-4-amino-3-methyl-2-oxa-8-azaspiro[4.5]decane-8-yl)pyrimidine-5-yl)mercapto)-2-chlorophenyl)-2-hydroxyl-4-oxo-6,7,8,9-tetrahydro-4H-pyridinyl[1,2-a]pyrimidine-3-carboxamide]
19 | ≤ 10 | C[C@@H]1OCC2(CCN(c3ncc(Sc4cccc(-c5cncnc5)c4Cl)cn3)CC2)[C@@H]1N [Compound 115, (3S,4S)-8-(5-((2-chloro-3-(pyrimidine-5-yl)phenyl)mercapto)pyrimidine-2-yl)-3-methyl-2-oxa-8-azaspiro[4.5]decane-4-amine]
20 | ≤ 10 | C[C@@H]1OCC2(CCN(c3ncc(Sc4cccc(-c5cnccn5)c4Cl)cn3)CC2)[C@@H]1N [Compound 116, (3S,4S)-8-(5-((2-chloro-3-(pyrazine-2-yl)phenyl)mercapto)pyrimidine-2-yl)-3-methyl-2-oxa-8-azaspiro[4.5]decane-4-amine]
21 | ≤ 10 | C[C@@H]1OCC2(CCN(c3ncc(Sc4cccc(-c5cccnc5)c4Cl)cn3)CC2)[C@@H]1N [Compound 117, (3S,4S)-8-(5-((2-chloro-3-(pyridine-3-yl)phenyl)mercapto)pyrimidine-2-yl)-3-methyl-2-oxa-8-azaspiro[4.5]decane-4-amine]
22 | ≤ 10 | C[C@@H]1OCC2(CCN(c3ncc(Sc4cccc(-c5ccncn5)c4Cl)cn3)CC2)[C@@H]1N [Compound 118, (3S,4S)-8-(5-((2-chloro-3-(pyrimidine-4-yl)phenyl)mercapto)pyrimidine-2-yl)-3-methyl-2-oxa-8-azaspiro[4.5]decane-4-amine]
23 | ≤ 10 | C[C@@H]1OCC2(CCN(c3ncc(Sc4cccc(Nc5cccnc5)c4Cl)cn3)CC2)[C@@H]1N [Compound 119, (3S,4S)-8-(5-((2-chloro-3-(pyridine-3-amino)phenyl)mercapto)pyrimidine-2-yl)-3-me thyl-2-oxa-8-azaspiro[4.5]decane-4-amine]
24 | ≤ 10 | C[C@@H]1OCC2(CCN(c3ncc(Sc4cccc(Nc5ncccn5)c4Cl)cn3)CC2)[C@@H]1N [Compound 120, (3S,4S)-8-(5-((2-chloro-3-(pyrimidine-2-amino)phenyl)mercapto)pyrimidine-2-yl)-3-methyl-2-oxa-8-azaspiro[4.5]decane-4-amine]
25 | ≤ 10 | C[C@@H]1OCC2(CCN(c3ncc(Sc4cccc(Nc5cnccn5)c4Cl)cn3)CC2)[C@@H]1N [Compound 121, (3S,4S)-8-(5-((2-chloro-3-(pyrazine-2-amino)phenyl)mercapto)pyrimidine-2-yl)-3-me thyl-2-oxa-8-azaspiro[4.5]decane-4-amine]
26 | ≤ 10 | C[C@@H]1OCC2(CCN(c3ncc(Sc4cccc(Nc5ccncn5)c4Cl)cn3)CC2)[C@@H]1N [Compound 122, (3S,4S)-8-(5-((2-chloro-3-(pyrimidine-4-amino)phenyl)mercapto)pyrimidine-2-yl)-3-methyl-2-oxa-8-azaspiro[4.5]decane-4-amine]
